Key:
[1] = target: T1, Peroxisome proliferator-activated receptor gamma (Homo sapiens, UniProt P37231); experiment: Inverse agonist activity at GST tagged human PPARgamma LBD (231 to 505 residues) expressed in Escherichia coli BL21(DE3) assessed as recruitment of fluorescein labeled corepressor NCOR2 Smrt-ID2 peptide to PPARgamma LBD incubated for 24 hrs by LanthaScreen TR-FRET assay
T1 sequence (P37231 whole entry): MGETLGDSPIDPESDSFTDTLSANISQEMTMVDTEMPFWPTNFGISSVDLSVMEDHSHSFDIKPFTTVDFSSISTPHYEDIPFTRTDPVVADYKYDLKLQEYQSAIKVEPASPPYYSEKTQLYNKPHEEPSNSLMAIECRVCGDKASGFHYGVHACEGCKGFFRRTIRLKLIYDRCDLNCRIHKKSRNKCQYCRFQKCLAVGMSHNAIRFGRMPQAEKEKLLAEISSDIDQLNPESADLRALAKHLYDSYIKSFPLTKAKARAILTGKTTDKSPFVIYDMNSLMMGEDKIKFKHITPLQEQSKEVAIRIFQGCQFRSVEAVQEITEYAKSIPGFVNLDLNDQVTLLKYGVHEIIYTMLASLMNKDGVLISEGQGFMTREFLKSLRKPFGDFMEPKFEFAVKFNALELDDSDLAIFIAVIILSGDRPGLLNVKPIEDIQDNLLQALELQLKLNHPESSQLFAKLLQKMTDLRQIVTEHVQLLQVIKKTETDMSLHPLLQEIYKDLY

[2] = Antiproliferative activity against human UM-UC-9 assessed as inhibition of cell proliferation by measuring maximum efficacy after 7 days by IncuCyte live-cell imaging assay; type: functional; details: UM-UC-9, 168 h, time 7 day
[3] = Antiproliferative activity against human UM-UC-9 assessed as inhibition of cell proliferation measured after 7 days by IncuCyte live-cell imaging assay; details: UM-UC-9, 168 h
[4] = target: T2, Peroxisome proliferator-activated receptor alpha (Homo sapiens, UniProt Q07869); experiment: Agonist activity at human PPARalpha expressed in CHO cells co-expressing GAL4-NHR-LBD assessed as transcriptional activation preincubated for 6 hrs followed by luciferin addition by luminescence method; type: cell-based
T2 sequence (Q07869 whole entry): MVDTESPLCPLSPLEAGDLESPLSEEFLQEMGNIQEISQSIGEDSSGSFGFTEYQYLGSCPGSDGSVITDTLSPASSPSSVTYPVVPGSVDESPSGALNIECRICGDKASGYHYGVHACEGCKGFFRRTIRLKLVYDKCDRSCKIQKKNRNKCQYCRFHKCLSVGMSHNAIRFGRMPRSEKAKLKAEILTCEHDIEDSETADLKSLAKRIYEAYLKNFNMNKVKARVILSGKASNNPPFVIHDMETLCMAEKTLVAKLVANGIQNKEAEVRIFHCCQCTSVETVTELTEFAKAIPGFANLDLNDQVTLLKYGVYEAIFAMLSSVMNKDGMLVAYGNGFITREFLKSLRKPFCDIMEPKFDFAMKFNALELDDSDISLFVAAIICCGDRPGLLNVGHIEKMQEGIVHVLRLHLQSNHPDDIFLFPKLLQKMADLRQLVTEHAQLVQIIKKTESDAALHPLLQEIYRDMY

[5] = target: T3, Peroxisome proliferator-activated receptor alpha (Homo sapiens) (UniProt Q07869); experiment: Agonist activity at human PPARalpha expressed in CHO cells co-expressing GAL4-NHR-LBD assessed as transcriptional activation by measuring maximum efficacy preincubated for 6 hrs followed by luciferin addition by luminescence method; type: cell-based; details: filed as agonist
T3 sequence (whole entry): T2 sequence (Q07869 whole entry)

[6] = target: T4, Peroxisome proliferator-activated receptor delta (Homo sapiens, UniProt Q03181); experiment: Inverse agonist activity at human PPARdelta expressed in CHO cells co-expressing GAL4-NHR-LBD assessed as transcriptional repression preincubated for 6 hrs followed by luciferin addition by luminescence method; type: cell-based
T4 sequence (Q03181 whole entry): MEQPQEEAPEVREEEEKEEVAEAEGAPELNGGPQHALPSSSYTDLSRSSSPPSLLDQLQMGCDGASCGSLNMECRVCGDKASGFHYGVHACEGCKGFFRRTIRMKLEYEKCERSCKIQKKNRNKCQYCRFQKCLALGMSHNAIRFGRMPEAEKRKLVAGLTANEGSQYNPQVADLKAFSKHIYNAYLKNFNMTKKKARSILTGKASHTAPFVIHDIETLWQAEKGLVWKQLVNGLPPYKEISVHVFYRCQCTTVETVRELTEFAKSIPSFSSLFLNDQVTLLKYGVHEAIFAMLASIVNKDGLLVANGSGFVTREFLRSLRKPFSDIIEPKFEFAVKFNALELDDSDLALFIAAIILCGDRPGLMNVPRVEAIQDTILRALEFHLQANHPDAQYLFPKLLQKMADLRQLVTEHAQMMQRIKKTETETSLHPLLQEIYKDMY

[7] = target: T1, Peroxisome proliferator-activated receptor gamma; experiment: Inverse agonist activity at human PPARgamma in human RT112/84 transfected with NLuc-fused FABP4 assessed as reduction in PPARgamma transactivation incubated for 6 to 18 hrs by Nano-Glo luciferase assay; type: cell-based

| SMILES | EC50 [1] [nM] | IC50 [7] [nM] | Emax [2] [%] | further results |
| --- | --- | --- | --- | --- |
| O=C(NCc1ccc(F)c(F)c1)c1ccc(Cl)c(C(=O)Nc2ccccc2)c1 | 1750 | – | 103 | – |
| O=C(Nc1ccncc1)c1cc([N+](=O)[O-])ccc1Cl | – | – | – | IC50 [4]: 2950 nM; Emax [5]: 289%; IC50 [6]: > 5000 nM |
| O=C(NCc1ccccc1)c1ccc(F)c(C(=O)Nc2ccccc2)c1 | > 5000 | > 5000 | – | – |
| Cc1ccccc1CNC(=O)c1ccc(Cl)c(C(=O)Nc2ccccc2)c1 | 1770 | 1040 | – | – |

The next lines start with results.

| EC50 [1] [nM] | IC50 [7] [nM] | SMILES | Emax [2] [%] | further results |
| --- | --- | --- | --- | --- |
| 31 | – | COCCOCc1cc(F)ccc1CNC(=O)c1cc(C(=O)Nc2ccc(C(F)(F)F)cc2C)c(Cl)cc1F | – | – |
| 230 | – | Cc1cccc(-c2nc3cc(NC(=O)c4cc(C(=O)NCc5ccc(F)c(F)c5)c(F)cc4Cl)ccc3o2)c1 | 93 | IC50 [3]: 18.7 nM |
| 110 | – | O=C(NCc1ccc(F)c(F)c1)c1cc(C(=O)Nc2ccccn2)c(Cl)cc1F | 100 | – |
| 500 | 91 | Cc1cccnc1NC(=O)c1cc(C(=O)NCc2ccc(F)c(F)c2)c(F)cc1Cl | 108 | IC50 [3]: 695 nM |

— ChEMBL document CHEMBL5236643, “Discovery and characterization of orally bioavailable 4-chloro-6-fluoroisophthalamides as covalent PPARG inverse-agonists” (Bioorg Med Chem, 2023)
